From US10857150B2, “Use of sanglifehrin macrocyclic analogues as anticancer compounds” (NEUROVIVE PHARMACEUTICAL AB, priority 2016, dated 2020)
pEC50, pIC50: −log10 of the molar value. Values belong to the molecule of their own block, whether it stands above or below them.

How the values were obtained:
[1] = system: LIXC-006; assay: 7-day proliferation assay, Calcein AM staining; assay type: cell-based, human
Description: (§1) The cells were seeded in a 96-well plate, test compound or DMSO was added and the plate was incubated for additional four days or 7 days (Calcein AM assay). Viable cell counts were determined after detachment by treatment with trypsin either by trypan blue exclusion, flow cytometry, indirectly by measuring ATP content by addition of an ATP measuring reagent (CellTiter Glo), or Calcein AM, prepared according to the instruction of the manufacturer directly.
(§2) XLfit software ((Fit model: Dose response one site/^F(x)[fit=(A+((B−A)/(1+((C/x)^D))))]) for curve fitting and IC50 calculation) was used for curve fitting and IC50 calculation.
(§3) In vitro evaluation of a sanglifehrin macrocyclic analogue (1) for anticancer activity against human hepatocyte cancer cell lines in comparison with NV556 (10) a 7-day proliferation assay. The cell numbers were determined by Calcein AM staining as described in the methods section. Data are from one experiment with each cell line testing duplicate samples of 9 concentrations of each compound. Both compounds were included in each experiment.
as §3, with “the cyclophilin inhibitor alisporivir and the kinase inhibitor sorafenib in” for “NV556 (10)”, “one single” for “one”, “or means of two independent experiments” for “with each cell line”, “All three” for “Both”

[2] = system: LIXC-004; assay: 7-day proliferation assay, Calcein AM staining; assay type: cell-based; conditions: Homo sapiens, 168 h, Example 6, n 2
Description: as §1, §2
as §3, with “the cyclophilin inhibitor alisporivir and the kinase inhibitor sorafenib in” for “NV556 (10)”, “one single” for “one”, “or means of two independent experiments” for “with each cell line”, “All three” for “Both”

[3] = system: LIXC-012; assay: 7-day proliferation assay, Calcein AM staining; assay type: cell-based; conditions: Homo sapiens, 168 h, Example 6, n 2
Description: as §1, §2
as §3, with “the cyclophilin inhibitor alisporivir and the kinase inhibitor sorafenib in” for “NV556 (10)”, “one single” for “one”, “or means of two independent experiments” for “with each cell line”, “All three” for “Both”

[4] = system: LIXC-003; assay: 7-day proliferation assay, Calcein AM staining; assay type: cell-based; conditions: Homo sapiens, 168 h, Example 6, n 2
Description: as §1, §2
as §3, with “the cyclophilin inhibitor alisporivir and the kinase inhibitor sorafenib in” for “NV556 (10)”, “one single” for “one”, “or means of two independent experiments” for “with each cell line”, “All three” for “Both”

[5] = system: LIXC-011; assay: 7-day proliferation assay, Calcein AM staining; assay type: cell-based; conditions: Homo sapiens, 168 h, Example 6, n 1
Description: as §1, §2
as §3, with “the cyclophilin inhibitor alisporivir and the kinase inhibitor sorafenib in” for “NV556 (10)”, “one single” for “one”, “or means of two independent experiments” for “with each cell line”, “All three” for “Both”

[6] = system: HepG2; assay: 7-day proliferation assay, Calcein AM staining; assay type: cell-based; conditions: Homo sapiens, 168 h, Example 6, n 2
Description: as §1, §2
as §3, with “the cyclophilin inhibitor alisporivir and the kinase inhibitor sorafenib in” for “NV556 (10)”, “one single” for “one”, “or means of two independent experiments” for “with each cell line”, “All three” for “Both”

[7] = system: SK-Hep-1 tumour cell line; assay: combined anticancer activity, monolayer proliferation assay; assay type: cell-based, human; conditions: over certain concentration ranges
Description: as §1
In vitro evaluation of the combined anticancer activity of a sanglifehrin macrocyclic analogue with the anticancer agents sorafenib or doxorubicin against the SK-Hep-1 tumour cell line in a monolayer proliferation assay was carried out as described in the general methods above.

[8] = system: LIXC-086; assay: 7-day proliferation assay, Calcein AM staining; assay type: cell-based, human
Description: as §1, §2, §3
as §3, with “the cyclophilin inhibitor alisporivir and the kinase inhibitor sorafenib in” for “NV556 (10)”, “one single” for “one”, “or means of two independent experiments” for “with each cell line”, “All three” for “Both”

[9] = system: Hep3B2.1-7-Luc; assay: 7-day proliferation assay, Calcein AM staining; assay type: cell-based, human
Description: as §1, §2, §3
as §3, with “the cyclophilin inhibitor alisporivir and the kinase inhibitor sorafenib in” for “NV556 (10)”, “one single” for “one”, “or means of two independent experiments” for “with each cell line”, “All three” for “Both”

[10] = system: LIXC-066; assay: 7-day proliferation assay, Calcein AM staining; assay type: cell-based, human
Description: as §1, §2, §3
as §3, with “the cyclophilin inhibitor alisporivir and the kinase inhibitor sorafenib in” for “NV556 (10)”, “one single” for “one”, “or means of two independent experiments” for “with each cell line”, “All three” for “Both”

[11] = system: A549; assay: monolayer proliferation assay, human tumour cell line panel; assay type: cell-based; conditions: means of two experiments, 3 nM-25 μM
Description: as §1
(§4) Percentage inhibition in the ATP test was calculated by the formula described below: Growth inhibition %: 100−100×(Experimental−Blank)/(DMSO−Blank)
as §2
(§5) In vitro evaluation of compounds for anticancer activity in a panel of human tumour cell lines in a monolayer proliferation assay were carried out at Shanghai Chempartner.
(§6) In vitro evaluation of a sanglifehrin macrocyclic analogue (NV556) for anticancer activity in a panel of 11 human tumour cell lines in a monolayer proliferation assay was carried out as described in the general methods above. Data are means from two independent experiments testing 10 concentrations (3 nM-25 μM) in duplicate.

[12] = system: U251; assay: as above; assay type: cell-based; conditions: means of two experiments, 3 nM-25 μM
Description: as §1, §4, §2, §5, §6

[13] = system: RPMI 8226; assay: as above; assay type: cell-based; conditions: means of two experiments, 3 nM-25 μM
Description: as §1, §4, §2, §5, §6

[14] = system: PC-3; assay: as above; assay type: cell-based; conditions: means of two experiments, 3 nM-25 μM
Description: as §1, §4, §2, §5, §6

[15] = system: HCT 116; assay: as above; assay type: cell-based; conditions: means of two experiments, 3 nM-25 μM
Description: as §1, §4, §2, §5, §6

[16] = system: Huh-7; assay: as above; assay type: cell-based; conditions: means of two experiments, 3 nM-25 μM
Description: as §1, §4, §2, §5, §6

[17] = system: MDA-MB-231; assay: as above; assay type: cell-based; conditions: means of two experiments, 3 nM-25 μM
Description: as §1, §4, §2, §5, §6

[18] = system: HT-29; assay: as above; assay type: cell-based; conditions: means of two experiments, 3 nM-25 μM
Description: as §1, §4, §2, §5, §6

[19] = system: A375; assay: as above; assay type: cell-based; conditions: means of two experiments, 10 concentrations 3 nM-25 μM
Description: as §1, §4, §2, §5, §6

[20] = system: SK-Hep-1; assay: as above; assay type: cell-based; conditions: means of two experiments, 3 nM-25 μM
Description: as §1, §4, §2, §5, §6

[21] = system: A2780; assay: as above; assay type: cell-based; conditions: means of two experiments, 3 nM-25 μM
Description: as §1, §4, §2, §5, §6

[22] = system: PANC-1; assay: as above; assay type: cell-based; conditions: means of two experiments, 3 nM-25 μM
Description: as §1, §4, §2, §5, §6

[23] = system: HepG2; assay: as above; assay type: cell-based; conditions: means of two experiments, 3 nM-25 μM
Description: as §1, §4, §2, §5, §6

[24] = system: LIXC-002; assay: 7-day proliferation assay, Calcein AM staining; assay type: cell-based, human; conditions: Example 5, one experiment
Description: as §1, §2, §3

[25] = Homo sapiens, 168 h, Example 6, n 2
[26] = read-out: Concentration giving 50% of maximum effect
[27] = Homo sapiens, 168 h, Example 6, n 1

pIC50 [6]: 5.53
Structure (SMILES): CNC(=O)c1cc(Oc2ccc(NC(=O)Nc3ccc(Cl)c(C(F)(F)F)c3)cc2)ccn1 [Sorafenib, sorafenib]
pIC50 [1, 25]: 5.40 | pIC50 [2]: 5.66 | pIC50 [3]: 5.94 | pIC50 [4]: 8.40 | pIC50 [5]: 6.27

Structure (SMILES): CC(=O)CCC1C(=O)NC(C(C)C)C(=O)NC(Cc2cc(O)cc(F)c2)C(=O)N2CCCC(N2)C(=O)OC(C(C)=CC=CC(=O)N2CCCCO2)CC=CC=CC(O)C(C)C1O (centres unmarked) [NV556]
reduction in cell numbers, combination versus single compounds ([7]; combination with doxorubicin): stronger reduction in cell numbers than either compound alone | reduction in cell numbers, combination versus single compounds ([7]; combination with sorafenib): stronger reduction in cell numbers than either compound alone | pIC50 ([8]; Example 5, one experiment): 5.02 | pIC50 ([1]; Example 5, one experiment): 7.21 | pIC50 ([9]; Example 5, one experiment): 7.27 | pIC50 ([10]; Example 5, one experiment): 6.61 | Maximum inhibition (%) [11]: 45.2% | pEC50 [11, 26]: 7.00 | Maximum inhibition (%) [12]: 62.0% | pEC50 [12, 26]: 4.77 | Maximum inhibition (%) [13]: 87.1% | pEC50 [13, 26]: 6.70 | Maximum inhibition (%) [14]: 45.3% | pEC50 [14, 26]: 6.52 | Maximum inhibition (%) [15]: 88.7% | pEC50 [15, 26]: 7.00 | Maximum inhibition (%) [16]: 22.4% | pEC50 [16, 26]: 7.52 | Maximum inhibition (%) [17]: 49.9% | pEC50 [17, 26]: 6.30 | Maximum inhibition (%) [18]: 56.8% | Maximum inhibition (%) [19]: 87.6% | pEC50 [19, 26]: 5.68 | Maximum inhibition (%) [20]: 94.6% | pEC50 [20, 26]: 7.00 | Maximum inhibition (%) [21]: 83.7% | pEC50 [21, 26]: 7.00 | Maximum inhibition (%) [22]: 51.0% | pEC50 [22, 26]: 5.89 | Maximum inhibition (%) [23]: 80.6% | pEC50 [23, 26]: 7.00 | pIC50 [24]: 7.41

pIC50 [9, 27]: 5.54 | pIC50 [6]: 5.50
Structure (SMILES): C/C=C/C[C@@H](C)[C@@H](O)[C@H]1C(=O)N[C@@H](CC)C(=O)N(C)[C@H](C)C(=O)N(CC)[C@@H](C(C)C)C(=O)N[C@@H](C(C)C)C(=O)N(C)[C@@H](CC(C)C)C(=O)N[C@@H](C)C(=O)N[C@H](C)C(=O)N(C)[C@@H](CC(C)C)C(=O)N(C)[C@@H](CC(C)C)C(=O)N(C)[C@@H](C(C)C)C(=O)N1C [Alisporivir, alisporivir]
pIC50 [8, 27]: 5.65 | pIC50 [1, 25]: 6.00 | pIC50 [10, 27]: 5.79 | pIC50 [2]: 5.42 | pIC50 [3]: 5.49 | pIC50 [4]: 5.33 | pIC50 [5]: 5.06
